Measured values published in patent publication US6485921B1, “UBCLP and uses thereof” (Millennium Pharmaceuticals, Inc., priority 1998, dated 2002).

Tested on: UBCLP expression in LNCaP cells
Assay: Expression of UBCLP in LNCaP prostate cancer cells treated with casodex or R1881
Assay type: cell-based, human
Conditions: 100 nM casodex versus 1 nM R1881, RPMI-1640 with 5% charcoal stripped serum, mRNA expression analysis
Description: In order to examine the effect of casodex, an anti-androgen, on the expression of UBCLP, LNCaP cells (androgen-responsive prostate cancer cells) were grown to 70% confluence in RPMI-1640 supplemented with 10% FBS. The cultures were then pretreated for 24 hours in dye-free RPMI-1640 containing 5% charcoal stripped serum. The cultures were then treated with either 1 nM R1881 or 100 nM casodex in RPMI-1640 containing 5% charcoal stripped serum prior to harvesting an extraction of total mRNA for expression analysis.
In CWR22 cells (a human primary prostate xenograft cell line; Wainstein et al. (1994) Cancer Res. 54:6059-52) implanted in male nude mice, UBCLP expression levels decrease about 5-fold in 21 days after castration. In CWR22R cells (Chen et al. (1998) Cancer Res 58:2777-83), an androgen-independent variant of CWR22 cells, UBCLP appears to be constitutively expressed with respect to androgen.

CC(O)(CS(=O)(=O)c1ccc(F)cc1)C(=O)Nc1ccc(C#N)c(C(F)(F)F)c1 (stereo not shown) [Casodex]
drop in UBCLP expression: 3 fold
